Test results as given in patent publication US20150313892A1, “PHARMACEUTICAL COMPOSITIONS FOR TREATING PAIN ASSOCIATED WITH DYSMENORRHEA” (priority 2014, published 2015).
Like-named read-outs stand apart in the source and are kept apart here.

What was measured:
[1] = target: κ-opioid (Homo sapiens, UniProt P41145); details: read-out: Binding Constant Ki, κ-opioid; cited from earlier work
[2] = target: NMDA; details: cited from earlier work
[3] = target: NE reuptake (Homo sapiens, UniProt P23975)
[4] = system: persons undergoing third molar surgery; details: cited from earlier work
[5] = system: cellular uptake of dopamine, noradrenaline, or serotonin; details: cited from earlier work
[6] = cited from earlier work
[7] = target: α2δ; details: read-out: α2δ Binding; cited from earlier work
[8] = target: δ-opioid (Homo sapiens, UniProt P41143); details: read-out: Binding Constant Ki, δ-opioid; cited from earlier work
[9] = target: Sigma; details: read-out: Binding Constant Ki, Sigma; cited from earlier work
[10] = target: μ-opioid (Homo sapiens, UniProt P35372); details: read-out: Binding Constant Ki, μ-opioid; cited from earlier work
[11] = in vivo, po; cited from earlier work
[12] = system: patients with diabetic neuropathy and fibromyalgia; assay: Pain relief in diabetic neuropathy and fibromyalgia patients; details: 400 mg per day, alone
[13] = target: 5-HT reuptake (Homo sapiens, UniProt P31645); details: read-out: Binding Constant Ki, 5-HT, cited from earlier work
[14] = system: postoperative patients; details: intravenous; 30-mg/kg bolus, 10 mg/kg/h infusion for 48 hours; cited from earlier work
[15] = system: uptake of norepinephrine (NE), serotonin (5-HT) and dopamine; details: cited from earlier work
[16] = system: α or β adrenergic, muscarinic, histaminergic, and dopaminergic receptors; details: cited from earlier work
[17] = system: patients with postherpetic neuralgia or painful diabetic neuropathy; details: oral, cited from earlier work
[18] = system: chronic sciatic nerve constriction injury; details: chronic sciatic nerve constriction injury in rats; cited from earlier work
[19] = system: transient K^+ channels in hippocampal neurons; details: read-out: IC50, inhibition of transient K+ channels; cited from earlier work
[20] = system: patients with fibromyalgia; details: fibromyalgia trials, cited from earlier work
[21] = system: patients, pain score; details: cited from earlier work
[22] = system: patients with neuropathic pain associated with diabetic peripheral neuropathy; details: diabetic peripheral neuropathy trials; cited from earlier work
[23] = read-out: Binding Constant Ki, NMDA
[24] = reuptake inhibition; read-out: Binding Constant Ki, NE; cited from earlier work
[25] = read-out: Binding Constant Ki, NE; reuptake inhibition; cited from earlier work

Sequence of NE reuptake (P23975 whole entry): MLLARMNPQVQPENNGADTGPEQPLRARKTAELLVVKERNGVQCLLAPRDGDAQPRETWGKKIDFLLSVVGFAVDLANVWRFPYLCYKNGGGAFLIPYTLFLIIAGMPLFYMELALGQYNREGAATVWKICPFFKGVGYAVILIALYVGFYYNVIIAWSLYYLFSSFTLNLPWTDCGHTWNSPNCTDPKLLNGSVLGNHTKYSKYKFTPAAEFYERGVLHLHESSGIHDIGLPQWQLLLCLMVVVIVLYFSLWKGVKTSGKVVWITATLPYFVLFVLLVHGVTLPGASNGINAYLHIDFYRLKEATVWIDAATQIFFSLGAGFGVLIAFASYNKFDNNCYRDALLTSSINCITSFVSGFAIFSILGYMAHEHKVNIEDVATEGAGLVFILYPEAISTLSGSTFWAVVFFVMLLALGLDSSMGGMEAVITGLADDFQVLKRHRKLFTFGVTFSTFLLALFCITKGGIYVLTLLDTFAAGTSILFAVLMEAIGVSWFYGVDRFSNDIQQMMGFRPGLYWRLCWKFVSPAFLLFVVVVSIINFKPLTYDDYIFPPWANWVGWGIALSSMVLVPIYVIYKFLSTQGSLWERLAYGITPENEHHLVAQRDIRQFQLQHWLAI
Sequence of κ-opioid (P41145 whole entry): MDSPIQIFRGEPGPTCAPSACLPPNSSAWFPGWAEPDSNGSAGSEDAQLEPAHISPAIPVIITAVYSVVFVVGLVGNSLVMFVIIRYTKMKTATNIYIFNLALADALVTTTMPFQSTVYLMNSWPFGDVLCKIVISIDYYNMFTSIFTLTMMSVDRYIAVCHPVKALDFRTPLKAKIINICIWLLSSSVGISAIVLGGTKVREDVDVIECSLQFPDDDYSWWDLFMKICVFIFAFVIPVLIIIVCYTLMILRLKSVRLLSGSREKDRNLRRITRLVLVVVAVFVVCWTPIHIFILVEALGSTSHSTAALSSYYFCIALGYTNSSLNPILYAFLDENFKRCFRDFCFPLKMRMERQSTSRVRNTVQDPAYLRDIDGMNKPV
Sequence of δ-opioid (P41143 whole entry): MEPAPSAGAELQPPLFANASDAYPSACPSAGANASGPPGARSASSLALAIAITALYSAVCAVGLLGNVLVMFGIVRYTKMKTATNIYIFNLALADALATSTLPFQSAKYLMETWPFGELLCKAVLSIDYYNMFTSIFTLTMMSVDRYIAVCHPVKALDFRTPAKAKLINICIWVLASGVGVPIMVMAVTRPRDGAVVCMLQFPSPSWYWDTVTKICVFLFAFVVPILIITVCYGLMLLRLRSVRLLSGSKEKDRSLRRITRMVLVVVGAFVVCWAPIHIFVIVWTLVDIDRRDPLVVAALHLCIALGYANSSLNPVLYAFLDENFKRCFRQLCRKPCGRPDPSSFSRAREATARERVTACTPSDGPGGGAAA
Sequence of 5-HT reuptake (P31645 whole entry, the tested form may be a part): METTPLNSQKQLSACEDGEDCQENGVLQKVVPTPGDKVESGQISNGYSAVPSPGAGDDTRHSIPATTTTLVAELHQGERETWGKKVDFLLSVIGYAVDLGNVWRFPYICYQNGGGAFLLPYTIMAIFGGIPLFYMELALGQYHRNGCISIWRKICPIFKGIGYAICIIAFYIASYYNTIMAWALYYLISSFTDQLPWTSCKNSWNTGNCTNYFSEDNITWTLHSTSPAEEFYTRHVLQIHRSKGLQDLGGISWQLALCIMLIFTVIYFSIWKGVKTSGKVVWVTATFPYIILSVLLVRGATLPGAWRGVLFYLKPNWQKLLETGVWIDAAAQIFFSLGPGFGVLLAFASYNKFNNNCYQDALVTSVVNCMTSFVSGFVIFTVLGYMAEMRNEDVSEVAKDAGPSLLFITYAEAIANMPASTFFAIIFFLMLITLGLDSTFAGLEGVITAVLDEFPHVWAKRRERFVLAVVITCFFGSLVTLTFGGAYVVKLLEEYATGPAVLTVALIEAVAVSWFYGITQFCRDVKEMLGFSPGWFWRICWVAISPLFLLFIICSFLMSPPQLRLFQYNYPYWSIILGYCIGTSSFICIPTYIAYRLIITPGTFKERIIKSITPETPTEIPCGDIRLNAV
Sequence of μ-opioid (P35372 whole entry): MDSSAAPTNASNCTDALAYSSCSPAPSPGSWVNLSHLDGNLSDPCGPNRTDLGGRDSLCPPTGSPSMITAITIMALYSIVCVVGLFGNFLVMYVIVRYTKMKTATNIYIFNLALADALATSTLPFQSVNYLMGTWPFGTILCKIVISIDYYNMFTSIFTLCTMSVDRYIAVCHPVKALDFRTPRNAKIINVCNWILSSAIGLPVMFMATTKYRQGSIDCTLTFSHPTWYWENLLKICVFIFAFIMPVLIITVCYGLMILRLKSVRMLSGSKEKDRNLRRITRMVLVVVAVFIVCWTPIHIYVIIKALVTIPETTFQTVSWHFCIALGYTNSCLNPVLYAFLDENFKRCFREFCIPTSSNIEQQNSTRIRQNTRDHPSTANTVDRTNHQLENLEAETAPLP

In the case of O-desmethyltramadol [(±) M1], the Ki [1] is given as 0.242 µM, the Ki [2, 23] is given as over 16000 nM and the Ki [3, 24] is given as 1520 nM.
For N[C@@H](Cc1c[nH]c2ccccc12)C(=O)O [tryptophan], the “effect on post-operative pain or on the consumption of other analgesics” value [4] is listed as “no effect”.
For NCC1(CC(=O)O)CCCCC1 [Gabapentin], the “cellular uptake of dopamine, noradrenaline, or serotonin” value [5] is given as “did not alter”, the Bioavailability ([6]; 900 mg/day given in 3 divided doses) is given as “approximately 60%” and the Bioavailability ([6]; 1200 mg/day given in 3 divided doses) is given as about 47%. The Bioavailability ([6]; 2400 mg/day given in 3 divided doses) was about 34%, the Bioavailability ([6]; 3600 mg/day given in 3 divided doses) was about 33% and the Bioavailability ([6]; 4800 mg/day given in 3 divided doses) was about 27%. For the same compound, the “apparent volume of distribution” value ([6]; after 150 mg intravenous administration, Mean±SD) was 58 ± 6 L, the “increase in AUC and Cmax with food” value ([6]; food effect) was 14% and the “bound to plasma protein” value ([6]; in vivo) was “Less than 3%”. The metabolism in humans ([6]; in vivo) was “not appreciably metabolized”, the “steady-state predose (Cmin) concentration in cerebrospinal fluid, of corresponding plasma concentration” value ([6]; patients with epilepsy) was “approximately 20%” and the elimination half-life ([6]; unaltered by dose or multiple dosing) was 5 to 7 h. The Ki [7] was 59 nM.
In the case of COc1ccc2c(c1)[C@@]13CCCC[C@H]1[C@@H](C2)N(C)CC3 [Dextromethorphan, (+)-3-methoxy-N-methylmorphinan], the Ki [8] is listed as 11.5 µM, the Ki [9] is listed as 365 nM and the Ki [10] is listed as 1280 nM. For the same compound, the Ki [2, 23] was 2910 nM.
For COc1cccc(C2(O)CCCCC2CN(C)C)c1 (racemic) [(±) Tramadol, (+/−)-trans(RR,SS)-2-[(di-methylamino)methyl]-1-(3-methoxyphenyl)cyclohexanol], the Ki [8] is given as 57.7 µM, the “duration of the analgesic effect” value [11] is given as “about 6 hours” and the reduction in pain [12] is given as 30-40%. The Ki [1] was 42.7 µM and the Ki [3, 24] was 785 nM.
For CN1CC[C@@]23CCCC[C@@H]2[C@@H]1Cc1ccc(O)cc13 [Dextrorphan], the Ki [8] is listed as 34.7 µM, the Ki [1] is listed as 5.95 µM and the Ki ([13]; reuptake inhibition) is listed as 401 nM. The Ki [3, 25] was 340 nM.
For [Mg] [magnesium], the “use of narcotics in postoperative patients” value [14] is listed as “reduced the use of narcotics”.
In the case of CCN(CC)C(=O)C1(c2ccccc2)CC1CN (centres unmarked) [Milnacipran], the uptake of dopamine [15] is listed as “does not affect”, the “affinity for α or β adrenergic, muscarinic, histaminergic, and dopaminergic receptors” value [16] is listed as “no affinity” and the Ki [2, 23] is listed as 6300 nM.
For CN(C)CCC=C1c2ccccc2CCc2ccccc21 [amitriptyline], the “patients with good or moderate response” value ([17]; painful diabetic neuropathy) is listed as “three-quarters” and the “patients with good or moderate response” value ([17]; postherpetic neuralgia) is listed as “about two-thirds”.
For COc1ccc(C(CN(C)C)C2(O)CCCCC2)cc1 (racemic) [Venlafaxine, (R/S)-1-[2-(dimethylamino)-1-(4-methoxyphenyl)ethyl]cyclohexanol], the “reversing chronic neuropathic pain secondary to thermal hyperalgesia; hyperalgesia of neuropathic pain” value [18] is given as “effective”.
In the case of CN(C)CCCN1c2ccccc2CCc2ccccc21 [imipramine], the IC50 [19] is given as about 6 µM.
For CN1CC[C@]23CCCC[C@H]2[C@H]1Cc1ccc(O)cc13 [Levorphanol], the Ki [8] is listed as 0.00361 µM, the Ki [1] is listed as 0.0042 µM and the Ki [13] is listed as 86.3 nM. For the same compound, the Ki [3, 25] was 1210 nM.
For CC(C)C[C@H](CN)CC(=O)O [pregabalin], the “patients discontinued prematurely due to adverse reactions” value ([20]; 150-600 mg/day) is given as 19%, the “discontinuation due to dizziness” value [20] is given as 6% and the “discontinuation due to somnolence” value [20] is given as 3%. For the same compound, the “withdrawal due to fatigue, headache, balance disorder, and weight increased, each” value [20] was “approximately 1%”, the “endpoint mean pain score (proportion with at least 50% reduction in pain score increased)” value ([21]; 8-week study, 50 and 100 mg three times a day vs placebo) was “statistically significantly improved” and the “endpoint mean pain score (proportion with at least 50% reduction in pain score increased)” value ([21]; 8-week study, 100 or 200 mg three times a day vs placebo, by creatinine clearance) was “statistically significantly improved”. The “endpoint mean pain score (proportion with at least 50% reduction in pain score increased)” value ([21]; 13-week study, 75, 150, 300 mg twice daily vs placebo, creatinine clearance greater than 60 mL/min, all doses) was “statistically significantly improved”, the “endpoint mean pain score (proportion with at least 50% reduction in pain score increased)” value ([21]; 100 and 200 mg three times a day) was “statistically significantly improved” and the “discontinuation due to dizziness” value [22] was 3%. The “discontinuation due to somnolence” value [22] was 2%, the “patients discontinued prematurely due to adverse reactions” value [22] was 9% and the “withdrawal due to asthenia, confusion, and peripheral edema, each” value [22] was “approximately 1%”.
